The source of these data is patent publication US6355640B1, “Pyrazolopyridine adenosine antagonists” (Fujisawa Pharmaceutical Co., Ltd., priority 1993, dated 2002).

As to `O=C1CCCC(n2nc(-c3c(-c4ccccc4)nn4ccccc34)ccc2=O)C1` (stereo not shown) [Example 102, 3-[2-(3-oxocyclohexyl)-3-oxo-2,3-dihydropyridazin-6-yl]-2-phenylpyrazolo[1,5-a]pyridine], the melting point (usually the temperature of the solid-liquid transition) was in the range of 126 to 127 °C.

`N#C/C=C1\CCCCC1n1nc(-c2c(-c3ccccc3)nn3ccccc23)ccc1=O` (stereo not drawn) [Example 96 (E)-isomer, (E)-3-[2-{2-Cyanomethylenecyclohexyl}-3-oxo-2,3-dihydropyridazin-6-yl]-2-phenylpyrazolo[1,5-a]pyridine] came in with a melting point of 174 to 175 °C.

`O=C(CC1=C(n2nc(-c3c(-c4ccccc4)nn4ccccc34)ccc2=O)CCCC1)N1CCSCC1` [Example 80, 3-[2-{2-(Thiomorpholin-4-ylcarbonyl)methyl-1-cyclohexenyl}-3-oxo-2,3-dihydropyridazin-6-yl]-2-phenylpyrazolo[1,5-a]pyridine] returned a melting point of 180.5 to 182.5 °C.

For `CN(C)C(=O)CC1=C(n2nc(-c3c(-c4ccccc4)nn4ccccc34)ccc2=O)CCCC1` [Example 71, 3-[2-{2-(N,N-Dimethylcarbamoyl)methyl-1-cyclohexenyl}-3-oxo-2,3-dihydropyridazin-6-yl]-2-phenylpyrazolo[1,5-a]pyridine], the melting point lay in the range of 80 to 81 °C.

For the compound `CCOC(=O)CN(C)C(=O)CC1=C(n2nc(-c3c(-c4ccccc4)nn4ccccc34)ccc2=O)CCCC1` [Example 68, 3-[2-{2-(N-ethoxycarbonylmethyl-N-methylcarbamoyl)methyl-1-cyclohexenyl}-3-oxo-2,3-dihydropyridazin-6-yl]-2-phenylpyrazolo[1,5-a]pyridine], the melting point lay within 56 to 60 °C.

The compound `O=c1ccc(-c2c(-c3ccccc3)nn3ccccc23)nn1C1CCCCC1=NO` (stereo not shown) (hydrate or solvate) [Example 89, 3-[2-(2-Hydroxyiminocyclohexyl)-3-oxo-2,3-dihydropyridazin-6-yl]-2-phenylpyrazolo[1,5-a]pyridine] displayed a melting point of 238 to 240 °C.

The compound `O=C(O)CN1CCCC(n2nc(-c3c(-c4ccccc4)nn4ccccc34)ccc2=O)C1=O` (stereo not shown) [Example 117, 3-[2-(1-Carboxymethyl-2-oxopiperidin-3-yl)-3-oxo-2,3-dihydropyridazin-6-yl]-2-phenylpyrazolo[1,5-a]pyridine] returned a melting point of 145 to 150 °C.

Compound `NN=C1CCCCC1n1nc(-c2c(-c3ccccc3)nn3ccccc23)ccc1=O` (stereo not shown) [Example 88, 3-[2-(2-Hydrazonocyclohexyl)-3-oxo-2,3-dihydropyridazin-6-yl]-2-phenylpyrazolo[1,5-a]pyridine] registered a melting point of 161 to 162 °C.

`O=C1CCCCCC1n1nc(-c2c(-c3ccccc3)nn3ccccc23)ccc1=O` (stereo not shown) [Example 11, 3-[2-(2-Oxocycloheptyl)-3-oxo-2,3-dihydropyridazin-6-yl]-2-phenylpyrazolo[1,5-a]pyridine] yielded a melting point of 112 to 114 °C.

Compound `CC1CC(C)(C)N=C(/C=C2\CCCCC2n2nc(-c3c(-c4ccccc4)nn4ccccc34)ccc2=O)O1` (stereo not shown) [Example 97(1), (E)-3-[2-{2-(4,4,6-Trimethyl-5,6-dihydro-4H-1,3-oxazin-2-yl)methylenecyclohexyl}-3-oxo-2,3-dihydropyridazin-6-yl]-2-phenylpyrazolo[1,5-a]pyridine] displayed a melting point of 156 to 158 °C.

Compound `O=C(O)C[C@H]1CC[C@H](n2nc(-c3c(-c4ccccc4)nn4ccccc34)ccc2=O)C1` (relative stereo) [Example 40, trans-3-[2-(3-Carboxymethylcyclopentyl)-3-oxo-2,3-dihydropyridazin-6-yl]-2-phenylpyrazolo[1,5-a]pyridine] displayed a melting point of 212 to 213 °C.

With `O=C(O)[C@H]1CCC[C@H](n2nc(-c3c(-c4ccccc4)nn4ccccc34)ccc2=O)C1` (relative stereo) [Example 41, trans-3-(2-(3-Carboxycyclohexyl)-3-oxo-2,3-dihydropyridazin-6-yl]-2-phenylpyrazolo[1,5-a]pyridine], the melting point lay in the range of 218 to 222 °C.

The compound `N#C/C=C1/CCCCC1n1nc(-c2c(-c3ccccc3)nn3ccccc23)ccc1=O` (stereo not drawn) [Example 96 (Z)-isomer, (Z)-3-[2-{2-Cyanomethylenecyclohexyl}-3-oxo-2,3-dihydropyridazin-6-yl]-2-phenylpyrazolo[1,5-a]pyridine] showed a melting point of 70 to 72 °C.

Regarding `O=C(O)CCCNC(=O)CC1=C(n2nc(-c3c(-c4ccccc4)nn4ccccc34)ccc2=O)CCCC1` [Example 46, 3-[2-(2-(N-(3-Carboxypropyl)carbamoyl)methyl-1-cyclohexenyl)-3-oxo-2,3-dihydropyridazin-6-yl]-2-phenylpyrazolo[1,5-a]pyridine], the melting point lay in the range of 92.5 to 93 °C.

For the compound `COc1ccccc1-n1nc(-c2c(-c3ccccc3)nn3ccccc23)ccc1=O` [Example 101, 3-[2-(2-Methoxyphenyl)-3-oxo-2,3-dihydropyridazin-6-yl]-2-phenylpyrazolo[1,5-a]pyridine], the melting point was 163 °C.

Turning to `COC(=O)/C=C1\CCCCC1n1nc(-c2c(-c3ccccc3)nn3ccccc23)ccc1=O` (stereo not shown) [Example 31, (E)-3-[2-(2-methoxycarbonylmethylenecyclohexyl)-3-oxo-2,3-dihydropyridazin-6-yl]-2-phenylpyrazolo[1,5-a]pyridine], the melting point was 156 to 157 °C.

`O=C(O)CCCC1=C(n2nc(-c3c(-c4ccccc4)nn4ccccc34)ccc2=O)CCCC1` [Example 53, 3-[2-{2-(3-Carboxypropyl)-1-cyclohexenyl}-3-oxo-2,3-dihydropyridazin-6-yl]-2-phenylpyrazolo[1,5-a]pyridine] returned a melting point of 145 to 147 °C.

In the case of `O=c1ccc(-c2c(-c3ccccc3)nn3ccccc23)nn1C1CCC2(CC1)OCCO2` [Example 21, 3-[2-(4,4-Ethylenedioxycyclohexyl)-3-oxo-2,3-dihydropyridazin-6-yl]-2-phenylpyrazolo[1,5-a]pyridine], the melting point was in the range of 189 to 190 °C.

In the case of `C=C1CCCCC1n1nc(-c2c(-c3ccccc3)nn3ccccc23)ccc1=O` (stereo not shown) [Example 93, 3-[2-(2-methylenecyclohexyl)-3-oxo-2,3-dihydropyridazin-6-yl]-2-phenylpyrazolo[1,5-a]pyridine], the melting point was 229 to 230 °C (dec.).

`CN(CC(=O)O)C(=O)CC1=C(n2nc(-c3c(-c4ccccc4)nn4ccccc34)ccc2=O)CCCC1` [Example 43, 3-[2-{2-(N-carboxymethyl-N-methylcarbamoyl)methyl-1-cyclohexenyl}-3-oxo-2,3-dihydropyridazin-6-yl]-2-phenylpyrazolo[1,5-a]pyridine] came in with a melting point of 135 to 138 °C.

`CC(C)(C)OC(=O)CC1=CCCCC1n1nc(-c2c(-c3ccccc3)nn3ccccc23)ccc1=O` (stereo not shown) [Example 95(2), 3-[2-{2-(tert-Butoxycarbonylmethyl)-2-cyclohexen-1-yl}-3-oxo-2,3-dihydropyridazin-6-yl]-2-phenylpyrazolo-[1,5-a]pyridine] yielded a melting point of 145.5 to 147 °C.

The compound `O=C(O)C[C@H]1CCCC[C@H]1n1nc(-c2c(-c3ccccc3)nn3ccccc23)ccc1=O` (relative stereo) [Example 38, cis-3-[2-(2-carboxymethylcyclohexyl)-3-oxo-2,3-dihydropyridazin-6-yl]-2-phenylpyrazolo[1,5-a]pyridine] yielded a melting point of 252 to 253 °C.

With `O=C(O)COc1cccc2c1CCC(n1nc(-c3c(-c4ccccc4)nn4ccccc34)ccc1=O)C2=O` (stereo not shown) [Example 119, 3-[2-(1-Carboxymethoxy-5-oxo-5,6,7,8-tetrahydro-6-naphthyl)-3-oxo-2,3-dihydropyridazin-6-yl]-2-phenylpyrazolo[1,5-a]pyridine], the melting point was in the range of 225 to 227 °C.

`CCOC(=O)[C@H]1CCC(=O)[C@@H](n2nc(-c3c(-c4ccccc4)nn4ccccc34)ccc2=O)C1` (relative stereo) [Example 16, cis-3-[2-(5-Ethoxycarbonyl-2-oxocyclohexyl)-3-oxo-2,3-dihydropyridazin-6-yl]-2-phenylpyrazolo[1,5-a]pyridine] returned a melting point of 160 to 162 °C.

The compound `C[C@@]1(O)CCCC[C@H]1n1nc(-c2c(-c3ccccc3)nn3ccccc23)ccc1=O` (relative stereo) [Example 35, 3-[2-{(1R*,2R*)-2-hydroxy-2-methylcyclohexyl}-3-oxo-2,3-dihydropyridazin-6-yl]-2-phenylpyrazolo[1,5-a]-pyridine] came in with a melting point of 197 to 198 °C.

`O=c1ccc(-c2c(-c3ccccc3)nn3ccccc23)nn1C1=C(CCO)CCCC1` [Example 105, 3-[2-{2-(2-hydroxyethyl)-1-cyclohexenyl}-3-oxo-2,3-dihydropyridazin-6-yl]-2-phenylpyrazolo[1,5-a]pyridine]: the melting point was in the range of 198 to 199 °C.

Regarding `O=C1OCCC1n1nc(-c2c(-c3ccccc3)nn3ccccc23)ccc1=O` (stereo not shown) [Example 25, 3-[2-(2-Oxo-2,3,4,5-tetrahydrofuran-3-yl)-3-oxo-2,3-dihydropyridazin-6-yl]-2-phenylpyrazolo[1,5-a]pyridine], the melting point lay within 179 to 180 °C.

As for `O=C(O)CNC(=O)CC1=C(n2nc(-c3c(-c4ccccc4)nn4ccccc34)ccc2=O)CCCC1` [Example 55, 3-[2-{2-(N-Carboxymethylcarbamoyl)methyl-1-cyclohexenyl}-3-oxo-2,3-dihydropyridazin-6-yl]-2-phenylpyrazolo[1,5-a]pyridine], the melting point was in the range of 190 to 192 °C.

The compound `COC(=O)COc1cccc2c1CCC(n1nc(-c3c(-c4ccccc4)nn4ccccc34)ccc1=O)C2=O` (stereo not shown) [Example 118, 3-[2-(1-Methoxycarbonylmethoxy-5-oxo-5,6,7,8-tetrahydro-6-naphthyl)-3-oxo-2,3-dihydropyridazin-6-yl]-2-phenylpyrazolo[1,5-a]pyridine] showed a melting point of 175 to 176 °C.

Compound `CCOC(=O)C[C@H]1CCCC[C@H]1n1nc(-c2c(-c3ccccc3)nn3ccccc23)ccc1=O` (relative stereo) [Example 33(2), cis-3-[2-(2-Ethoxycarbonylmethylcyclohexyl)-3-oxo-2,3-dihydropyridazin-6-yl]-2-phenylpyrazolo[1,5-a]pyridine] came in with a melting point of 151 to 152 °C.

Consider `O=c1ccc(-c2c(-c3ccccc3)nn3ccccc23)nn1-c1ccccc1` [Example 99, 3-(2-phenyl-3-oxo-2,3-dihydropyridazin-6-yl)-2-phenylpyrazolo[1,5-a]pyridine], for which the melting point worked out at 170 °C.
